Consider 51 compounds from EPA's ToxValDB 9.5.

The data set concerns Rattus norvegicus. To be noted: for LD50: acute.
Where [1] appears, read: subchronic, duration: 90 days, oral, gavage, M/F, hematological.
Where [2] appears, read: subchronic, duration: 90 days, oral, diet, M/F, Sprague-Dawley, histopathology: nonneoplastic.
[3] abbreviates: subchronic, duration: 90 days, oral, diet, M/F, Sprague-Dawley, no effects.
Setting [4] is: subchronic, duration: 90 days, oral, diet, M/F, no effects.
Where [5] appears, read: subchronic, duration: 13 weeks, oral, diet, M/F, Wistar, hematological.
The mark [6] stands for this setting: subchronic, duration: 90 days, oral, diet, M/F, Wistar, hematological.
Where [7] appears, read: chronic, duration: 2 years, oral, diet.

Molecules are shown by their SMILES. “And” between values parts separate entries of the source, which are not always exact repeats. Equal entries are not always repeated. Structures can show the parent of a compound that is named as a salt. Some results are limits rather than exact numbers.

The term NOAEL denotes the highest tested level that showed no adverse finding. Turning to `CCOC(=O)CNC(=O)[C@@H]1C[C@H](C)CC[C@H]1C(C)C`, the NOAEL under setting [1] was found to be 75 mg/kg-day.

On to `CC(C)[C@@H]1CC[C@@H](C)C[C@H]1C(=O)NCCc1ccccn1` (relative stereo), for which, under setting [2], the NOAEL turned out to be 5 mg/kg-day.

In turn, `O=c1[nH]sc2ccccc12` [1,2-Benzisothiazolin-3-one] came in with an NOAEL (subchronic, duration: 90 days, oral, gavage, M/F, Wistar, histopathology: nonneoplastic) of 10 mg/kg-day.

On to `CCC(S)S` [1,?1-?Propanedithiol], for which the no-observed-adverse-effect level (NOAEL) under setting [3] was 0.705 mg/kg-day (2×) and 0.703 mg/kg-day (2×).

Under setting [1], `CC(=O)c1ccccn1` [1-(2-Pyridyl)-1-ethanone] had an NOAEL of 37 mg/kg-day.

For the setting “subchronic, duration: 90 days, oral, gavage, M, hematological”, `CC(=O)c1ccc(C)[nH]1` [1-(5-Methyl-1H-pyrrol-2-yl)ethan-1-one] had an NOAEL of 48 mg/kg-day.

Turning to `CC(=O)c1ccc2ccccc2c1` [2'-Acetonaphthone], the NOAEL is 33 mg/kg-day (subchronic, duration: 90 days) and 33 mg/kg-day under setting [4].

The compound `C[C@@H]1O[C@@H](O[C@H]2[C@H](O[C@@H]([C@H](O)[C@@H](O)C=O)[C@H](O)CO)O[C@H](CO)[C@H](O)[C@@H]2O)[C@@H](O)[C@H](O)[C@@H]1O` [2'-Fucosyllactose] yielded an NOAEL (subchronic, duration: 90 days, oral, gavage, M/F, Wistar, organ weight) of 2000 mg/kg-day.

Compound `CC1CCCCC1NC(=O)c1c(F)c(F)c(F)c(F)c1F` (stereo not drawn) [2,3,4,5,6-Pentafluoro-N-(2-methylcyclohexyl)benzamide] gave a no observed adverse effect level (NOAEL) (subchronic, duration: 90 days, oral, diet, M/F, Wistar, clinical signs) of 55 mg/kg-day.

As for `CC(C)CC1NC(CC(C)C)SC(CC(C)C)S1` (stereo not drawn) [2,4,6-Triisobutyl-5,6-dihydro-4H-1,3,5-dithiazine], the NOAEL (subchronic, duration: 90 days, oral, diet, M, histopathology: nonneoplastic) came to 9.3 mg/kg-day.

The compound `NS(=O)(=O)c1ccccc1C(F)(F)F` [2-(Trifluoromethyl)benzenesulfonamide] came in with a no observed adverse effect level (NOAEL) (short-term, duration: 28 days, organ weight) of 15 mg/kg-day.

Under “subchronic, duration: 90 days, oral, diet”, `O=Cc1cc2ccccc2o1` [2-Benzofurancarboxaldehyde] registered an NOEL of 25 mg/kg-day.

Regarding `SCc1ccco1` [2-Furylmethanethiol], under “subchronic, duration: 90 days, oral, gavage, M/F, body weight”, the NOAEL was 3 mg/kg-day.

In the case of `CCCCCC(C)=O` [2-Heptanone], the NOAEL (subchronic, duration: 13 weeks, oral, gavage, M/F, organ weight) was 20 mg/kg-day.

With `CC(=O)SC1=C(C)OCC1` [2-Methyl-3-thioacetoxy-4,5-dihydrofuran], the NOAEL under setting [5] amounted to 1.4 mg/kg-day. The compound further gave an NOEL under setting [6] of 1.4 mg/kg-day.

Regarding `CC(C=O)=Cc1ccccc1` [2-Methylcinnamic aldehyde], the NOAEL under setting [4] turned out to be 220 mg/kg-day.

In turn, `CCCCCCCCCC(C)=O` [2-Undecanone] returned an NOAEL (subchronic, duration: 90 days, oral, clinical signs) of 50 mg/kg-day.

`CC1=C(S)CCO1` [2-methyl-4,5-dihydrofuran-3-thiol] registered an NOAEL under setting [5] of 1.4 mg/kg-day. The NOEL under setting [6] is 1.4 mg/kg-day.

`CCC1=C(O)C(=O)C(C)O1` (stereo not drawn) [3(2H)-Furanone, 5-ethyl-4-hydroxy-2-methyl-] gave an NOAEL (chronic, duration: 2 years, M/F, body weight) of 200 mg/kg-day.

Where the note is “subchronic, duration: 90 days, oral, diet, M/F, Crj:CD, clinical signs”, `Cc1ccc(C(C)CC=O)o1` (stereo not drawn) [3-(5-Methyl-2-furyl)butanal] showed a no observed adverse effect level (NOAEL) of 5.9 mg/kg-day.

The compound `Cn1cc(C(F)(F)F)cc(Cl)c1=O` [3-Chloro-1-methyl-5-(trifluoromethyl)pyridin-2-one] returned an LD50 (oral, F, Wistar, mortality) of 124 mg/kg.

In the case of `CCCCCC/C=C/C(C)=O` [3-Decen-2-one], the LD50 (oral, mortality) is greater than 5000 mg/kg-day. For the same compound, the NOAEL (developmental, development) was no less than 1000 mg/kg-day.

In turn, `Cc1sc2nc(=O)[nH]c(N)c2c1C` [4-Amino-5,6-dimethylthieno(2,3-d)pyrimidin-2(1H)-one] came in with an NOAEL (subchronic, duration: 13 weeks, oral, diet, M/F, Sprague-Dawley, no effects) of 60 mg/kg-day.

With `COc1cc(C=O)ccc1O` [4-Hydroxy-3-methoxybenzaldehyde], the NOAEL by setting is: (chronic, duration: 2 years) 1000 mg/kg-day; (subchronic, duration: 13 weeks, oral, gavage, no effects) 400 mg/kg-day.

The compound `CC1=C(O)C(=O)CO1` [4-Hydroxy-5-methyl-3-furanone] returned a no-observed-adverse-effect level (NOAEL) (chronic, duration: 2 years, oral, diet, M/F, Sprague-Dawley, body weight) of 200 mg/kg-day.

Take `CC(C)(C)C1CCC(O)CC1` (stereo not drawn) [4-tert-Butylcyclohexanol]: the NOAEL reads like this: (reproduction developmental, clinical signs) 31.5 mg/kg-day; (short-term, duration: 28 days, clinical signs) 30 mg/kg-day.

On to `Cc1ccc2oc(=O)ccc2c1` [6-Methyl coumarin], for which the NOEL (subchronic, duration: 13 weeks) amounted to 150 mg/kg-day.

In turn, `C=CCc1ccc(OC(C)=O)c(OC)c1` [(2-Methoxy-4-prop-2-enylphenyl) acetate] showed an NOAEL (subchronic, duration: 90 days, clinical chemistry) of 300 mg/kg-day.

The compound `C=C1CC[C@H]2O[C@]2(C)CC[C@@H]2[C@@H]1CC2(C)C` [(-)Carophyllene oxide] registered an NOAEL under setting [2] of 109 mg/kg-day.

Regarding `C=C(C)[C@@H]1CC=C(C)CC1` [(S)-Limonene], the no-observed-adverse-effect level (NOAEL) (chronic, duration: 103 weeks, oral, gavage, F, mortality) came to 215 mg/kg-day.

`CC(=O)N[C@@H]([C@@H](O)[C@H](O)[C@H](O)CO)[C@@H](O)CC(=O)C(=O)O` [Aceneuramic acid] showed an NOAEL (subchronic, duration: 13 weeks, oral, diet, M/F, Crj:CD, food consumption) of 493 mg/kg-day.

The compound `CC=O` [Acetaldehyde] returned an NOAEL (subchronic, duration: 11 weeks, oral, drinking water, other) of 120 mg/kg-day.

Regarding `CC(=NC#N)N(C)Cc1ccc(Cl)nc1` [Acetamiprid], the NOAEL (reproduction developmental, duration: 16 days, oral, gavage, F, other) was found to be 2.5 mg/kg-day.

With `CCCCOC(=O)CC(CC(=O)OCCCC)(OC(C)=O)C(=O)OCCCC` [Acetyl tributyl citrate], where the note is “subchronic, duration: 90 days, oral, body weight”, the NOAEL came to 100 mg/kg-day.

What is called LOAEL is the lowest dose or exposure tested at which an adverse effect was seen. For the setting “subchronic, duration: 13 weeks, histopathology: nonneoplastic”, `CC1=C(/C=C/C(C)=C/C=C/C(C)=C/C=C/C=C(C)/C=C/C=C(\C)C=O)C(C)(C)CCC1` [Apocarotenal] gave an NOAEL of 30 mg/kg-day. Moreover, where the note is “subchronic, duration: 13 weeks, oral, M/F, Sprague-Dawley, histopathology: nonneoplastic”, the LOAEL came to 10 mg/kg-day.

In turn, `CC(=O)Nc1ccc(S(=O)(=O)[O-])c2cc(S(=O)(=O)[O-])c(N=Nc3ccc(N=Nc4ccc(S(=O)(=O)[O-])cc4)c4ccc(S(=O)(=O)[O-])cc34)c(O)c12.[Na+].[Na+].[Na+].[Na+]` [Black PN] displayed an NOAEL (chronic, duration: 2 years, oral, diet, M/F, no effects) of 500 mg/kg-day.

Regarding `O=C1C(c2[nH]c3ccc(S(=O)(=O)[O-])cc3c2O)=Nc2ccc(S(=O)(=O)[O-])cc21.[Na+].[Na+]` [C.I. Acid Blue 74], the NOAEL came to 500 mg/kg-day under setting [7] and 500 mg/kg-day (chronic, duration: 2 years, oral, diet, growth).

`OC1OC[C@@H](O)[C@@H](O)[C@H]1O` (stereo partly drawn) [D-Ribose] registered an NOAEL (subchronic, duration: 90 days, oral, diet, M/F, Wistar, body weight) of 3600 mg/kg-day.

For `CCCCC(CC)COC(=O)c1ccccc1C(=O)OCC(CC)CCCC` (stereo not drawn) [Di(2-ethylhexyl) phthalate], the NOAEL (developmental, Sprague-Dawley, development) is 5 mg/kg-day.

With `CC(C)CCCCCCOC(=O)c1ccccc1C(=O)OCCCCCCC(C)C` [Diisononyl phthalate], the NOAEL (chronic, duration: 2 years, M/F, Fischer 344, histopathology: nonneoplastic) amounted to 15 mg/kg-day.

For `CCOC(=O)CCCSC(C)=O` [Ethyl 4-(acetylthio)butyrate], for the setting “subchronic, duration: 13 weeks, oral, diet”, the NOEL turned out to be 6.5 mg/kg-day. In addition, the NOAEL was 6.63 mg/kg-day (subchronic, duration: 90 days, oral) and 6.63 mg/kg-day under setting [4].

In the case of `C#CCN1C(=O)COc2cc(F)c(N3C(=O)C4=C(CCCC4)C3=O)cc21` [Flumioxazin], the NOAEL reads like this: (chronic, duration: 2 years, hematological) 1.8 mg/kg-day; (developmental, development) 3 mg/kg-day; (subchronic, duration: 90 days, oral, hematological) 2.2 mg/kg-day.

Where the note is “subchronic, duration: 90 days, oral, diet, M/F, Fischer 344, hematological”, `O=Cc1ccco1` [Furfural] returned an NOEL of 54 mg/kg-day.

Take `OC[C@H]1O[C@H](OC[C@H]2O[C@@H](O)[C@@H](O)[C@@H](O)[C@@H]2O[C@@H]2O[C@H](CO)[C@@H](O)[C@H](O)[C@@H]2O)[C@H](O)[C@@H](O)[C@H]1O` [Galactomannan]: under “short-term, duration: 28 days, M/F, Sprague-Dawley, clinical chemistry”, the NOEL came to 230 mg/kg-day.

Under “chronic, duration: 52 weeks”, `Cl.N[C@@H](C=O)[C@@H](O)[C@H](O)[C@H](O)CO` [Glucosamine hydrochloride] had an NOAEL of 2130 mg/kg-day.

`O=C1O[C@H]([C@H](O)CO)C(O)=C1O` [Isoascorbic acid] showed a no-observed-adverse-effect level (NOAEL) (chronic, duration: 2 years, oral, drinking water, M/F, Fischer 344, body weight) of 650 mg/kg-day.

Where the note is “chronic, duration: 24 weeks, oral, gavage, Wistar, no effects”, `CCCCC/C=C/C/C=C/CCCCCCCC(=O)O[C@H](COC(=O)CCCCCCCCCCCCCCC)COP(=O)([O-])OCC[N+](C)(C)C` [Lecithin] showed an NOAEL of 3750 mg/kg-day.

Compound `CCCCCC1C(=O)CCC1CC(=O)OC` (stereo not drawn) [Methyl dihydrojasmonate] yielded an NOAEL under setting [3] of 100 mg/kg-day.

With `CCCCCCCCCCCC[N+](C)(C)[O-]` [N,N-Dimethyldodecylamine-N-oxide], under setting [7], the NOAEL is 50 mg/kg-day.

In the case of `CC(C)=CCC/C(C)=C/CNC(=O)C1CC1` [N-3,7-Dimethyl-2,6-octadienyl cyclopropylcarboxamide, (2E)-], the NOAEL under setting [4] turned out to be 73.3 mg/kg-day.

Compound `CCCC(CCC)NC(=O)c1ccc2c(c1)OCO2` [N-(1-Propylbutyl)-1,3-benzodioxole-5-carboxamide] had an NOEL (chronic, duration: 93 days) of 20 mg/kg-day.
